The values that follow come from patent publication US6358492B1, “Dopamine transporter imaging ligand” (Research Triangle Institute, priority 1997, dated 2002).

Structures can show the parent of a compound that is named as a salt. Where two headings read alike, the source gives them in different places.

Data set [1] concerns the target serotonin transporter (UniProt P31652). As to conditions: read-out: IC50 5-HT [3H]Paroxetine; 0.2 nM [3H]paroxetine; values taken from literature (footnotes d-h); cited from earlier work.
Data set [2] concerns the target dopamine transporter (Mus musculus, UniProt Q61327). The experiment in a line: In vivo binding / regional brain distribution of radiolabeled ligand after i.v. injection in mice. As to the method: Male CD mice weighting 25-35 g received 1 μCi [^3H]RTI-352 ([…], diluted in saline containing 0.5% methanol) by intravenous injection. The animals were killed at different times, and [^3H]RTI-352 concentrations in different brain regions determined as previously described (Scheffel et al., 1989; Cline et al., 1992). To evaluate the selectivity of [^3H]RTI-352 in vivo binding, blocking doses (5 mg/kg, dissolved in 0.1 ml saline) of GBR 12,909 (DAT blocker), desipramine (NET blocker), or paroxetine (5-HTT blocker) were injected intravenously 5 minutes before [^3H]RTI-352 tracer injection. The animals were killed 30 minutes later and [^3H]RTI-352 concentrations determined in the various brain tissues.
The percent dose per gram tissue peaked rapidly in all regions of the brain and was maintained for a slightly longer time in the striatum compared to other tissues that lack DAT. The tissue to cerebellar ratios reflected this fact in that striatal to cerebellar ratios were relatively high at early times but low at later times (FIG. 1).

Data set [3] deals with norepinephrine transporter (UniProt Q9WTR4). The data set can be described thus: Inhibition of 0.5 nM [3H]nisoxetine binding to the norepinephrine transporter. Particulars: read-out: IC50 NE [3H]Nisoxetine; 0.5 nM [3H]nisoxetine; mean ± standard error where given.
In data set [4] the target is serotonin transporter (UniProt P31652). Type of data set: binding. Particulars: read-out: IC50 5-HT [3H]Paroxetine; 0.2 nM [3H]paroxetine; mean ± standard error where given.
Data set [5] addresses norepinephrine transporter (UniProt Q9WTR4). As to conditions: read-out: IC50 NE [3H]Nisoxetine; 0.5 nM [3H]nisoxetine; values taken from literature (footnotes d-h); cited from earlier work.
Data set [6] has as its system norepinephrine transporter. The experiment in a line: Inhibition of 0.5 nM [3H]nisoxetine binding to the norepinephrine transporter. As to conditions: ratio of IC50 values.
In data set [7] the test system is serotonin transporter. It counts as binding. Particulars: for 5-HT/DA Ratio: ratio of IC50 values.
Data set [8] concerns the target T1, dopamine transporter (UniProt P23977).
T1 construct: other: 0.5 nM [3H]WIN 35,428; mean ± standard error where given
It counts as binding. Particulars: read-out: IC50 DA [3H]WIN 35,428; 0.5 nM [3H]WIN 35,428; mean ± standard error where given.

Data set [9] deals with T1, dopamine transporter. As to conditions: read-out: IC50 DA [3H]WIN 35,428; 0.5 nM [3H]WIN 35,428; values taken from literature (footnotes c-h); cited from earlier work.

Sequence of dopamine transporter (Mus musculus, UniProt Q61327) (Q61327 whole entry): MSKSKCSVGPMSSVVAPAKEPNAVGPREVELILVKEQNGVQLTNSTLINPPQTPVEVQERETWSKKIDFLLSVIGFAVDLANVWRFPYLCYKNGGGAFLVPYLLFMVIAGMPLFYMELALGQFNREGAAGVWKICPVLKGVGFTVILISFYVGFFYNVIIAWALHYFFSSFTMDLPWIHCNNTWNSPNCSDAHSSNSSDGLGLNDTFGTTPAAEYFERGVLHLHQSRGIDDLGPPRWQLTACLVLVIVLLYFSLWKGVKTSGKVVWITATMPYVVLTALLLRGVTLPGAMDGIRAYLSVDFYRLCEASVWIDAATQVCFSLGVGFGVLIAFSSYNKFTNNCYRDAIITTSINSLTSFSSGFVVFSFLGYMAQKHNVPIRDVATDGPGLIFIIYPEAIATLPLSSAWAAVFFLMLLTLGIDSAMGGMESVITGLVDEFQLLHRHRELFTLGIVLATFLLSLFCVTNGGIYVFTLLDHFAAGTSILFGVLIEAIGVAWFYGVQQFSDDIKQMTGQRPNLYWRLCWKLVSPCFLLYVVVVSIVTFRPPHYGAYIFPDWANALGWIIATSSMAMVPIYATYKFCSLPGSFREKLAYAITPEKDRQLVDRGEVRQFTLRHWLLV

One may read the IC50 as the concentration that inhibits the measured activity by half. `COC(=O)C1C(c2ccc(Cl)cc2)CC2CCC1N2C` (stereo not shown) [1c]: in data set [1], the IC50 was 44.5 ± 1.3 nM.

For the compound `COC(=O)[C@H]1[C@@H](c2ccc([125I])cc2)C[C@@H]2CC[C@H]1N2C` [[^125I]RTI-55, reference compound], the “approach to equilibrium of striatal to cerebellar ratios” value in data set [2] (mouse, parallel in vivo labeling experiments) is “steadily increasing at 120 min”.

As for `[3H]C([3H])([3H])N1[C@H]2CC[C@@H]1[C@@H](C(=O)OC)[C@H](c1ccc(I)cc1)C2` [[^3H]RTI-352], in data set [2] (mouse brain, i.v. 1 μCi tracer, little enrichment at any time), the hypothalamus/cerebellum ratio is reported as 1.4. For the same compound, in data set [2] (mouse, i.v. injection), the efflux from brain result is on record as “relatively rapid” and the penetration into brain result is reported as “very rapid”.

Take `COC(=O)[C@@H]1[C@H]2CC[C@@H](C[C@H]1c1ccc(F)cc1)N2C` [2a, 3α-(4-Fluorophenyl)tropane-2β-carboxylic acid methyl ester]: the IC50 was determined as 1230 nM in data set [3] and 5060 nM in data set [4].

Turning to `COC(=O)C1C(c2ccc(F)cc2)CC2CCC1N2C` (stereo not shown) [1a], the figures for the IC50 in [1] and in data set [5] were 810 ± 59 nM and 835 ± 45 nM, respectively.

With `COC(=O)C1C(c2ccc(I)cc2)CC2CCC1N2C` (stereo not shown) [1b, reference compound], the “NE/DA Ratio” value in data set [6] is 29. Also, the “5-HT/DA Ratio” value in data set [7] is reported as 3.3. In addition, the IC50 in data set [1] was 4.21 ± 0.3 nM.

Take `COC(=O)[C@@H]1[C@H]2CC[C@@H](C[C@H]1c1ccc(Cl)cc1)N2C` [2c, 3α-(4-Chlorophenyl)tropane-2β-carboxylic acid methyl ester tosylate]: the IC50 in data set [8] was determined as 2.4 ± 0.2 nM; in data set [4] it was 998 ± 120 nM.

As to `COC(=O)[C@@H]1[C@H]2CC[C@@H](C[C@H]1c1ccc(C)cc1)N2C` [2d, 3α-(4-Methylphenyl)tropane-2β-carboxylic acid methyl ester tosylate], the figures for the IC50 in data set [8] and in data set [3] were 10.2 ± 0.8 nM and 275 ± 24 nM, respectively.

As to `COC(=O)[C@@H]1[C@H]2CC[C@@H](C[C@H]1c1ccc(I)cc1)N2C.Cc1ccc(S(=O)(=O)O)cc1` [2b, 3α-(4-Iodophenyl)tropane-2β-carboxylic acid methyl ester tosylate], the IC50 amounted to 2.85 ± 0.16 nM in data set [8], 52.4 ± 4.9 nM in data set [3] and 64.9 ± 1.97 nM in data set [4]. For the same compound, in data set [6], the “NE/DA Ratio” value came to 18. For the same compound, the “5-HT/DA Ratio” value in data set [7] is recorded as 23. The “times more selective for the DAT relative to the 5-HT transporter” value in [7] (relative to 1b (RTI-55)) turned out to be 7 times. In addition, in [2] (mouse brain, i.v. tracer), the “time at which striatal-to-cerebellar ratio peaked” value was “about 30 min”. The “time the peak striatal-to-cerebellar ratio was maintained thereafter” value in data set [2] (mouse brain, i.v. tracer) is reported as “about 20 min”.

For the compound `COC(=O)C1C(c2ccccc2)CC2CCC1N2C` (stereo not shown) [1e], the IC50 in data set [9] was 23 ± 5 nM; in data set [5], 920 ± 73 nM.

For `COC(=O)C1C(c2ccccc2)CC2CCC1N2C` (stereo not shown) [2e], the concentration for half-maximal inhibition (IC50) is 101 ± 16 nM in [8] and 2080 nM in data set [3].
